In patent US12115193B2, “Methods of using RARγ agonists for cancer treatment” (Io Therapeutics, Inc., priority 2021, dated 2024):

Key:
TIL in JIMT-1 tumors = test: Flow cytometry of JIMT-1 tumors from NSG-B2M mice, Day 26; type: in vivo, human
Text: (§1) The mice were sacrificed on Day 26 of the study and the tumors collected and analyzed by flow cytometry. Statistical analysis was by ordinary one-way ANOVA with Tukey's test for significance comparison between groups. Gates were set to identify single cells by forward light scatter, live cells as single cells based on side scatter and staining with the vital stain Fixable Viability Dye eFluor™ 780, white blood cells from live cells based on side scatter and staining with anti-CD45, lymphocytes from white blood cells based on side and forward light scatter, and total T lymphocytes (tot T) from lymphocytes based on side scatter and staining with anti-CD3. Total T lymphocytes were divided into CD4^+ (TH) and CD8^+ (TC) lymphocytes based on staining with and anti-CD4 and CD8 antibodies and subsets assessed. The following observations were made on a per-mg of tumor tissue basis.

EMT6 cells [1] = test: EMT6 syngeneic mouse model of triple negative breast cancer (Example 3); type: in vivo; settings: 21 daily oral doses 10 mg/kg; at the end of the study
Experimental: The RARγ agonists tazarotenic acid and GA2E were evaluated in the EMT6 syngeneic mouse model of breast cancer. 5×10^5 EMT6 cells were injected into the mammary fat pad of immunocompetent female Balb/c mice. When the tumors reached an average volume of 50-150 mm^3, mice were matched by tumor size into control or treatment groups (n=10-11).
The mice were treated with 21 daily oral doses 10 mg/kg of 1 mg/ml tazarotenic acid or GA2E, or vehicle control, starting on Day 0. Tumor volume was measured, and the mice weighed, on days 0, 1, 3, 6, 8, 10, 13, 15, 17, 20, and 21.

EMT6 cells [2] = test: EMT6 triple negative breast cancer model, various dosages (Example 5); type: in vivo, mouse
Text: The EMT6 triple negative breast cancer model, essentially as described above, was used to assess the effects of increased dosages of GA2E. The mice were orally administered 10 (n=10), 25 (n=10), or 50 (n=11) mg/kg of GA2E, or vehicle control (n=10) daily for 17 days. […] Two mice in the vehicle control group were terminated at Day 12 with tumors >1500 mm^3.

[3] = system: Lewis lung carcinoma (LLC) cells; test: Lewis lung carcinoma in vitro culture viability, Cell Titer Glo Assay; type: cell-based, mouse
Experimental: Lewis lung carcinoma (LLC) cells were cultured in vitro the presence of a multiple concentrations of the RARγ agonists GA1E, GA2E, and GA3Ep and viability assessed by the Cell Titer Glo Assay®.

TIL in LLC tumors = test: Flow cytometry of LLC tumors, Day 13; type: in vivo, mouse
Text: as §1, with “13” for “26”, “assessed (FIG. 20).” for “assessed.”

PBMC = test: CMV recall antigen-stimulated PBMC: IFNγ production and CFSE proliferation; type: cell-based; settings: four days, vs vehicle control
Experimental: Peripheral blood mononuclear cells (PBMC) from a cytomegalovirus (CMV)-positive donor were labeled with carboxyfluorescein succinimidyl ester (CFSE) and stimulated with CMV recall antigens at […]. The PBMC were then treated with one of three difference RARγ selective agonists or vehicle (DMSO) control and incubated at 37° C., 5% CO2 for four days. Culture supernatant was harvested and assayed for IFNγ production and the PBMC evaluated for proliferation by flow cytometry for CFSE dilution.
CFSE is a fluorescent reactive cell membrane permeable dye. After it is taken up, CFSE covalently modifies proteins and is retained in cells for long periods of time. The CFSE-modified proteins are generally evenly divided between daughter cells at each division so that fluorescent intensity of the cells falls by have at each division. Thus diminution of the dye's fluorescent signal can be used as a measure of proliferation.

[4] = per mg tumor, vs controls, P<0.0001
[5] = per mg tumor, vs controls, P<0.001
[6] = per mg tumor, vs controls, P<0.05
[7] = per mg tumor, vs controls, P<0.05, listed as GA2
[8] = per mg tumor, vs controls, P>0.05

`CC1(C)CCC(C)(C)c2cc(C(/C=C/c3ccc(C(=O)O)cc3F)=N/O)ccc21` [GA2E, 3-fluoro-4-((1E,3E)-3-(hydroxyimino)-3-(5,5,8,8-tetramethyl-5,6,7,8-tetrahydronaphthalen-2-yl)prop-1-en-1-yl)benzoic acid] was tested, and the “proportion of tumor cells expressing PD-L1, CD18β, CD58 (LFA-3), and Her2” value (TIL in JIMT-1 tumors; JIMT-1 tumor cells, flow cytometry) was “did not significantly alter”, the “concentration of T central memory CD8+ cells (CCR7+ CD45AR−) in tumor” value (TIL in JIMT-1 tumors; per mg tumor, vs controls) was “no significant change” and the “concentration of T effector memory CD8+ cells (CCR7− CD45AR−) in tumor” value (TIL in JIMT-1 tumors; per mg tumor, vs controls) was “no significant change”. For the same molecule, the “concentration of naïve CD8+ cells (CCR7+ CD45AR+) in tumor” value (TIL in JIMT-1 tumors; per mg tumor, vs controls) was “no significant change”, the “concentration of CD8+ TIL expressing PD-1” value (TIL in JIMT-1 tumors; [4]) was “increased” and the “concentration of terminally differentiated CD8+ T effector cells (CCR7− CD45AR+)” value (TIL in JIMT-1 tumors; [4]) was “substantial increase”. The “concentration of CD8+ TIL expressing CD18β” value (TIL in JIMT-1 tumors; [5]) was “increased”, the “concentration of total CD8+ lymphocytes in tumor” value (TIL in JIMT-1 tumors; [5]) was “increased” and the “concentration of CD8+ TIL expressing CD54” value (TIL in JIMT-1 tumors; per mg tumor, vs controls, P<0.01) was “increased”. The “concentration of CD4+ TIL expressing CD18β” value (TIL in JIMT-1 tumors; [6]) was “increased”, the “concentration of CD4+ TIL expressing CD54” value (TIL in JIMT-1 tumors; [6]) was “decreased” and the “concentration of CD4+ TIL expressing PD-1” value (TIL in JIMT-1 tumors; [6]) was “decreased”. The “concentration of T central memory CD4+ cells (CCR7+ CD45AR−)” value (TIL in JIMT-1 tumors; [6]) was “decreased”, the “concentration of T effector memory CD4+ cells (CCR7− CD45AR−)” value (TIL in JIMT-1 tumors; [6]) was “decreased” and the “concentration of naïve CD4+ cells (CCR7+ CD45AR+)” value (TIL in JIMT-1 tumors; [6]) was “decreased”. The “concentration of total CD4+ lymphocytes in tumor” value (TIL in JIMT-1 tumors; [6]) was “decreased”, the “concentration of CD4+ TIL expressing CD54” value (TIL in JIMT-1 tumors; [7]) was “increased” and the “concentration of CD4+ TIL expressing PD-1” value (TIL in JIMT-1 tumors; [7]) was “increased”. The “concentration of CD4+ TIL expressing FoxP3” value (TIL in JIMT-1 tumors; [8]) was “increased”, the “concentration of terminally differentiated CD4+ T effector cells (CCR7− CD45AR+)” value (TIL in JIMT-1 tumors; [8]) was “decreased” and the tumor growth inhibition (EMT6 cells [1]) was 63%. For the same molecule, the tolerability (EMT6 cells [2]; 10 mg/kg oral daily for 17 days) was “acceptably well-tolerated”, the “mice terminated for excessive weight loss” value (EMT6 cells [2]; 25 mg/kg group (n=10), oral daily) was “one mouse” and the “inhibiting tumor growth, 25 mg/kg dosage versus 10 mg/kg dosage” value (EMT6 cells [2]; 25 mg/kg oral daily) was “somewhat more effective”. For the same molecule, the tolerability (EMT6 cells [2]; 25 mg/kg oral daily for 17 days) was “acceptably well-tolerated”, the weight loss (EMT6 cells [2]; 25 mg/kg, only a short excursion) was “more than 10%” and the “mice terminated for excessive weight loss” value (EMT6 cells [2]; 50 mg/kg oral daily (n=11)) was “terminated for excessive weight loss not later than Day 12”. The “tumor inhibition by the 50 mg/kg dosage versus the other dosages” value (EMT6 cells [2]; 50 mg/kg, limited time in the study (to Day 12)) was “not clearly different”, the “effect on viability as concentrations exceeded 10 μM” value [3] was “rapidly became toxic” and the “effect on viability at concentrations below 1 μM” value [3] was “no effect”. For the same molecule, the IC50 ([3]; Mus musculus, Lewis lung carcinoma) was 46 µM, the “proportion of Treg cells as a percentage of total T cell” value (TIL in LLC tumors; P<0.001) was “significantly reduced” and the “concentration of T helper cells” value (TIL in LLC tumors; per mg tumor, 10 and 25 mg/kg) was “did not change significantly”. The “concentration of T regulatory cells” value (TIL in LLC tumors; per mg tumor, 10 and 25 mg/kg) was “did not change significantly”, the “concentration of central memory CD8+ T cells” value (TIL in LLC tumors; per mg tumor, 10 and 25 mg/kg) was “did not change significantly” and the “concentration of naïve CD8+ T cells” value (TIL in LLC tumors; per mg tumor, 10 and 25 mg/kg) was “did not change significantly”. For the same molecule, the “concentration of total CD4+ T cells” value (TIL in LLC tumors; per mg tumor, 10 and 25 mg/kg) was “did not change significantly”, the “concentration of effector memory CD8+ T cells” value (TIL in LLC tumors; per mg tumor, P<0.01 for the 25 mg/kg dosage) was “increased” and the “concentration of cytotoxic cells (CD8, intracellular IFN-γ)” value (TIL in LLC tumors; per mg tumor, P<0.05 for the 25 mg/kg dosage) was “increased”. For the same molecule, the “concentration of total CD8+ lymphocytes in tumor” value (TIL in LLC tumors; per mg tumor, vs controls, P<0.05 for the 25 mg/kg dosage) was “increased”, the IFNγ production (PBMC; 0.1 to 1000 nM) was “increased IFNγ production substantially” and the “Proliferation of CD8+ cells (CFSE dilution)” value (PBMC; increase small) was “increased”.
